Measured values taken from US20070099877A1, “N-aryl-thienopyrimidin-4-amines and analogs as activators of caspases and inducers of apoptosis and the use thereof” (Cytovia, Inc., priority 2005, published 2007).
Where a name gives a salt, the structure may show the parent alone. Read-outs that look alike come from different tables or passages of the source.

How the values were obtained:
Format in all cases: cell-based
[1] = test system: human hepatocellular carcinoma cell line SNU398; assay: Caspase cascade activation in SNU398 cells; conditions: Homo sapiens, SNU-398, 48 h, read-out: Caspase activation Potency EC50 SNU398 (48 h)
Procedure: (§1) Human breast cancer cell line T-47D, human lung cancer cell line H1299, human hepatocellular carcinoma cell line SNU398, human colon carcinoma cell line HCT116 were grown according to media component mixtures designated by American Type Culture Collection+10% FCS (Invitrogen Corporation), in a 5% CO2-95% humidity incubator at 37° C. T-47D and H1299 cells were maintained at a cell density between 50 and 80% confluency at a cell density of 0.1 to 0.6×10^6 cells/mL. Cells were harvested at 600×g and resuspended at 0.65×10^6 cells/mL into appropriate media+10% FCS. An aliquot of 22.5 μL of cells was added to a well of a 384-well microtiter plate containing 2.5 μL of a 10% DMSO in RPMI-1640 media solution containing 0.16 to 100 μM of N-(2,5-dimethoxyphenyl)-2-methylthieno[3,2-d]pyrimidin-4-amine or other test compound (0.016 to 10 μM final). An aliquot of 22.5 μL of cells was added to a well of a 384-well microtiter plate containing 2.5 μL of a 10% DMSO in RPMI-1640 media solution without test compound as the control sample. The samples were mixed by agitation and then incubated at 37° C. for 24 h or 48 h in a 5% CO2-95% humidity incubator. After incubation, the samples were removed from the incubator and 25 μL of a solution containing 14 μM of N-(Ac-DEVD)-N′-ethoxycarbonyl-R110 (SEQ ID NO.:1) fluorogenic substrate (Cytovia, Inc.; WO99/18856), 20% sucrose (Sigma), 20 mM DTT (Sigma), 200 mM NaCl (Sigma), 40 mM Na PIPES buffer pH 7.2 (Sigma), and 500 μg/mL lysolecithin (Calbiochem) was added. The samples were mixed by agitation and incubated at room temperature. Using a fluorescent plate reader (Model SPECTRAfluor Plus, Tecan), an initial reading (T=0) was made approximately 1-2 min after addition of the substrate solution, employing excitation at 485 nm and emission at 530 nm, to determine the background fluorescence of the control sample. After the 3 h incubation, the samples were read for fluorescence as above (T=3 h).
(§2) The Relative Fluorescence Unit values (RFU) were used to calculate the sample readings as follows: RFU(T=3h)−Control RFU(T=O)=Net RFU(T=3h)
(§3) The activity of caspase cascade activation was determined by the ratio of the net RFU value for N-(2,5-dimethoxyphenyl)-2-methylthieno[3,2-d]pyrimidin-4-amine or other test compound to that of control samples. The EC50 (nM) was determined by a sigmoidal dose-response calculation (Prism 3.0, GraphPad Software Inc.).

[2] = test system: human lung cancer cell line H1299; assay: Caspase cascade activation in H1299 cells; conditions: NCI-H1299, 24 h, read-out: Caspase activation Potency EC50 H1299 (24 h)
Procedure: as §1, §2, §3

[3] = test system: human colon carcinoma cell line HCT116; assay: Caspase cascade activation in HCT116 cells; conditions: Homo sapiens, HCT-116, 48 h, read-out: Caspase activation Potency EC50 HCT116 (48 h)
Procedure: as §1, §2, §3

[4] = test system: human breast cancer cell line T-47D; assay: Caspase cascade activation (DEVD-R110 fluorogenic substrate) in T-47D cells; conditions: Homo sapiens, T47D
Procedure: as §1, §2, §3

[5] = 24 h, T47D cells, 24 h, read-out: Caspase activation Potency EC50 T47D (24 h)
[6] = 48 h, T-47D cells, 48 h, read-out: Caspase activation Potency EC50 T-47D (48 h)

EC50 [1]	EC50 [2]	EC50 [3]	EC50 [4, 5]	EC50 [4, 6]	SMILES
4.66 µM	5 µM	5.55 µM	0.121 µM	0.311 µM	COc1ccc(OC)c(Nc2nc(C)nc3sccc23)c1 [Example 3, N-(2,5-Dimethoxyphenyl)-2-methylthieno[2,3-d]pyrimidin-4-amine]
> 10 µM	> 10 µM	> 10 µM	> 10 µM	> 10 µM	COc1ccccc1Nc1ncnc2ccsc12 [Example 4, N-(2-Methoxyphenyl)thieno[3,2-d]pyrimidin-4-amine]
> 10 µM	> 10 µM	> 10 µM	> 10 µM	> 10 µM	COc1ccc(OC)c(Nc2nc(C)nc3scc(C)c23)c1 [Example 7, N-(2,5-Dimethoxyphenyl)-2,5-dimethylthieno[2,3-d]pyrimidin-4-amine hydrochloride]
> 10 µM	> 10 µM	> 10 µM	> 10 µM	> 10 µM	COc1ccc(Nc2ncnc3ccsc23)c(OC)c1 [Example 8, N-(2,4-Dimethoxyphenyl)thieno[3,2-d]pyrimidin-4-amine hydrochloride]
> 10 µM	> 10 µM	> 10 µM	> 10 µM	> 10 µM	COc1cccc(Nc2ncnc3ccsc23)c1OC [Example 9, N-(2,3-Dimethoxyphenyl)thieno[3,2-d]pyrimidin-4-amine hydrochloride]
1.05 µM	5.02 µM	5 µM	0.065 µM	0.072 µM	COc1cc(Nc2ncnc3ccsc23)cc(OC)c1OC [Example 10, N-(3,4,5-Trimethoxyphenyl)thieno[3,2-d]pyrimidin-4-amine hydrochloride]
5.73 µM	5.37 µM	> 10 µM	0.555 µM	1.19 µM	COc1cccc(Nc2ncnc3ccsc23)c1 [Example 11, N-(3-Methoxyphenyl)thieno[3,2-d]pyrimidin-4-amine hydrochloride]
> 10 µM	> 10 µM	> 10 µM	> 10 µM	> 10 µM	COc1ccc(Nc2nc(C)nc3scc(C)c23)cc1 [Example 13, N-(4-Methoxyphenyl)-2,5-dimethylthieno[2,3-d]pyrimidin-4-amine hydrochloride]
> 10 µM	> 10 µM	> 10 µM	1.81 µM	2.02 µM	COc1ccc(Nc2ncnc3ccsc23)cc1OC [Example 14, N-(3,4-Dimethoxyphenyl)thieno[3,2-d]pyrimidin-4-amine hydrochloride]
5.28 µM	5.08 µM	> 10 µM	5.74 µM	5.46 µM	COc1ccc(Nc2nc(C)nc3sccc23)cc1 [Example 15, N-(4-Methoxyphenyl)-2-methylthieno[2,3-d]pyrimidin-4-amine]
> 10 µM	> 10 µM	> 10 µM	> 10 µM	> 10 µM	COc1ccc(OC)c(Nc2ncnc3sc(-c4ccccc4)c(C)c23)c1 [Example 16, N-(2,5-Dimethoxyphenyl)-5-methyl-6-phenylthieno[2,3-d]pyrimidin-4-amine hydrochloride]
0.534 µM	0.299 µM	0.346 µM	0.036 µM	0.105 µM	COc1ccc(OC)c(Nc2ncnc3cc(I)sc23)c1 [Example 17, 6-Iodo-N-(2,5-dimethoxyphenyl)thieno[3,2-d]pyrimidin-4-amine hydrochloride]
> 10 µM	2.79 µM	> 10 µM	0.071 µM	0.171 µM	COc1ccc(OC)c(Nc2ncnc3c(C)c(I)sc23)c1 [Example 18, 6-Iodo-N-(2,5-dimethoxyphenyl)-7-methylthieno[3,2-d]pyrimidin-4-amine hydrochloride]
> 10 µM	> 10 µM	> 10 µM	> 10 µM	> 10 µM	COc1ccc(Nc2ncnc3ccsc23)cc1 [Example 19, N-(4-Methoxyphenyl)thieno[3,2-d]pyrimidin-4-amine hydrochloride]
0.431 µM	0.114 µM	0.341 µM	0.016 µM	0.037 µM	COc1ccc(OC)c(Nc2ncnc3cc(Br)sc23)c1 [Example 20, 6-Bromo-N-(2,5-dimethoxyphenyl)thieno[3,2-d]pyrimidin-4-amine]
> 10 µM	> 10 µM	> 10 µM	> 10 µM	> 10 µM	Cc1cc(Nc2ncnc3ccsc23)no1 [Example 21, N-(5-Methylisoxazol-3-yl)thieno[3,2-d]pyrimidin-4-amine hydrochloride]
> 10 µM	5.03 µM	0.341 µM	0.114 µM	0.233 µM	COc1ccc(OC)c(Nc2ncnc3c(C)csc23)c1 [Example 22, N-(2,5-Dimethoxyphenyl)-7-methylthieno[3,2-d]pyrimidin-4-amine]
> 10 µM	> 10 µM	> 10 µM	> 10 µM	> 10 µM	COc1ccc(Nc2ncnc3scc(C)c23)cc1 [Example 23, N-(4-Methoxyphenyl)-5-methylthieno[2,3-d]pyrimidin-4-amine]
> 10 µM	> 10 µM	> 10 µM	> 10 µM	> 10 µM	c1nc(Nc2ccc3[nH]ccc3c2)c2sccc2n1 [Example 24, N-(1H-Indol-5-yl)thieno[3,2-d]pyrimidin-4-amine]
> 10 µM	5.44 µM	> 10 µM	5.57 µM	> 10 µM	Brc1cccc(Nc2ncnc3ccsc23)c1 [Example 25, N-(3-Bromophenyl)thieno[3,2-d]pyrimidin-4-amine hydrochloride]
> 10 µM	5.04 µM	> 10 µM	0.476 µM	0.496 µM	COc1ccc(OC)c(Nc2nc(-c3ccccc3)nc3ccsc23)c1 [Example 26, N-(2,5-Dimethoxyphenyl)-2-phenylthieno[3,2-d]pyrimidin-4-amine]
	2.68 µM		1.1 µM		COc1cc(O)cc(Nc2ncnc3ccsc23)c1 [Example 44, N-(3-Hydroxy-5-methoxyphenyl)thieno[3,2-d]pyrimidin-4-amine]
0.565 µM		1.28 µM		0.131 µM	COc1cc(Nc2ncnc3cc(Br)sc23)cc(N(C)C)c1 [Example 64, 6-Bromo-N-(3-dimethylamino-5-methoxyphenyl)thieno[3,2-d]pyrimidin-4-amine]
0.354 µM		0.62 µM		0.457 µM	COc1cc(Nc2nc(C)nc3ccsc23)cc(-n2cnnn2)c1 [Example 65, N-(3-Methoxy-5-(1H-tetrazol-1-yl)phenyl)-2-methylthieno[3,2-d]pyrimidin-4-amine]
0.297 µM		0.498 µM		0.065 µM	COc1cc(Nc2nc(C)nc3cc(Br)sc23)cc(N(C)C)c1 [Example 66, 6-Bromo-N-(3-dimethylamino-5-methoxyphenyl)-2-methylthieno[3,2-d]pyrimidin-4-amine]
4.95 µM		> 10 µM		0.227 µM	COc1cc(Nc2ncnc3cc(Br)sc23)cc(OC)c1 [Example 67, 6-Bromo-N-(3,5-dimethoxyphenyl)thieno[3,2-d]pyrimidin-4-amine]
5.08 µM		> 10 µM		2.95 µM	COc1cc(N)cc(Nc2ncnc3ccsc23)c1 [Example 68, N-(3-Amino-5-methoxyphenyl)thieno[3,2-d]pyrimidin-4-amine]
0.605 µM		1.67 µM		0.486 µM	COc1c(Br)c(N)c(Br)c(Nc2ncnc3ccsc23)c1Br [Example 73, N-(3-Amino-2,4,6-tribromo-5-methoxyphenyl)thieno[3,2-d]pyrimidin-4-amine]
